Calls of active or inactive are those of the source. The rule behind the calls is not given here.
How the values were obtained:
[1] = target: T1, Neuronal acetylcholine receptor; alpha4/beta2 (Homo sapiens, UniProt P17787+P43681); test: Displacement of [3H]Nicotine from alpha4beta2 nACHR in human SHEP1 cell membranes after 2 hrs by liquid scintillation counting analysis
[2] = target: T2, Neuronal acetylcholine receptor; alpha3/beta4 (Homo sapiens, UniProt P30926+P32297); test: Agonist activity at human alpha3beta4 nACHR expressed in CHO cell membranes assessed as stimulation of calcium flux by FLIPR assay relative to control; assay type: cell-based
[3] = target: T2, Neuronal acetylcholine receptor; alpha3/beta4; test: Agonist activity at human alpha3beta4 nACHR expressed in CHO cell membranes assessed as stimulation of calcium flux by FLIPR assay; assay type: cell-based
[4] = target: T2, Neuronal acetylcholine receptor; alpha3/beta4; test: Displacement of [3H]Epibatidine from human alpha3beta4 nACHR expressed in CHO cell membranes after 2 hrs by liquid scintillation counting analysis
[5] = target: T1, Neuronal acetylcholine receptor; alpha4/beta2; test: Agonist activity at alpha4beta2 nACHR in human SHEP1 cell membranes assessed as stimulation of calcium flux by FLIPR assay relative to control; assay type: cell-based
[6] = target: Neuronal acetylcholine receptor subunit alpha-7 (Homo sapiens, UniProt P36544); test: Displacement of [3H]Epibatidine from human alpha7 nACHR expressed in CHO cell membranes after 2 hrs by liquid scintillation counting analysis
[7] = target: T1, Neuronal acetylcholine receptor; alpha4/beta2; test: Agonist activity at alpha4beta2 nACHR in human SHEP1 cell membranes assessed as stimulation of calcium flux by FLIPR assay; assay type: cell-based
Rattus norvegicus [8] = test: Cognitive enhancing effect in rat at 0.003 mg/kg, po by novel object recognition test; assay type: functional, organism-based; parameters: dose 0.003 mg/kg
Rattus norvegicus [9] = test: Cognitive enhancing effect in rat at 0.1 to 3 mg/kg, po by novel object recognition test; assay type: functional, organism-based

T1 sequence (P17787 whole entry): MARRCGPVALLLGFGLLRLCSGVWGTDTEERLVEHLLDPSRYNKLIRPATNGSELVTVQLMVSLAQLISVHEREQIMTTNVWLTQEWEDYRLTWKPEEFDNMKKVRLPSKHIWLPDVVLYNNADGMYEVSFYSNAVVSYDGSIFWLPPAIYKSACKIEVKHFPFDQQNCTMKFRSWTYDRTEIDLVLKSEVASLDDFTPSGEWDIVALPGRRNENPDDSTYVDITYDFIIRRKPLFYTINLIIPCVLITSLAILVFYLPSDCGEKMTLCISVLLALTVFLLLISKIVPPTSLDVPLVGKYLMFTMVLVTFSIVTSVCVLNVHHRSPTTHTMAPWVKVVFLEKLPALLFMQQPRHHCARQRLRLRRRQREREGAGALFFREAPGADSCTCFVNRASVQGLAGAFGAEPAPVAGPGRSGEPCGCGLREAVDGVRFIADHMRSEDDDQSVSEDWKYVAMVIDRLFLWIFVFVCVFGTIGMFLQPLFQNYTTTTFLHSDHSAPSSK
T1 sequence (P43681 whole entry): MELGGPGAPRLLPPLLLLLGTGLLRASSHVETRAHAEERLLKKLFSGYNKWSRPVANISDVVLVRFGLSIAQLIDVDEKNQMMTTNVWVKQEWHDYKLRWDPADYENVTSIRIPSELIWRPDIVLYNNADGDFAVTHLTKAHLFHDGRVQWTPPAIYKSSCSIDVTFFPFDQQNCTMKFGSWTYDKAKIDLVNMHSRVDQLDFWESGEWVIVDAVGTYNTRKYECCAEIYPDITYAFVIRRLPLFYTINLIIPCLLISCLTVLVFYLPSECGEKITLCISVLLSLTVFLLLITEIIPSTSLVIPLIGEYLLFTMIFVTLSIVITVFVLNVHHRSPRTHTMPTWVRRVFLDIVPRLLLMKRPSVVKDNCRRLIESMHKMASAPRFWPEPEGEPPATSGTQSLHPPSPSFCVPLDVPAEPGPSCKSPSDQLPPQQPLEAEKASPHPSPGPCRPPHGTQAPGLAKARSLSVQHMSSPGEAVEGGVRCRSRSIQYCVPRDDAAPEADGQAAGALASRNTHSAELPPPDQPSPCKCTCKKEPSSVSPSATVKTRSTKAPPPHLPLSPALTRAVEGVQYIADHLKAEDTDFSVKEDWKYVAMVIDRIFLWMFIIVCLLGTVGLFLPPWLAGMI
T2 sequence (P30926 whole entry): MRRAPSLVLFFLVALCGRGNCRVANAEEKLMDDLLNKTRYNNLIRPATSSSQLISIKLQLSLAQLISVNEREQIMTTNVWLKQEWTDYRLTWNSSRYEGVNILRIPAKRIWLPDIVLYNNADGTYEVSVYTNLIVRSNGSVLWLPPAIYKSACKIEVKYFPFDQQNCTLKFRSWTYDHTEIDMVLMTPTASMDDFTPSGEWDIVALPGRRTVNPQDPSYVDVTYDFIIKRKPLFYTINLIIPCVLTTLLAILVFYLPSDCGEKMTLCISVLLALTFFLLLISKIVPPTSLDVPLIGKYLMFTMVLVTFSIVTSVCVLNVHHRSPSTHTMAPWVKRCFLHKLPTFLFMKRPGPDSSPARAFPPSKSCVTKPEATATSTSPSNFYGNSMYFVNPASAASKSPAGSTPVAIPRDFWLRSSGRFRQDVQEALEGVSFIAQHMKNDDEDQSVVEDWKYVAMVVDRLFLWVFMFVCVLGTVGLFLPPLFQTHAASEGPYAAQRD
T2 sequence (P32297 whole entry): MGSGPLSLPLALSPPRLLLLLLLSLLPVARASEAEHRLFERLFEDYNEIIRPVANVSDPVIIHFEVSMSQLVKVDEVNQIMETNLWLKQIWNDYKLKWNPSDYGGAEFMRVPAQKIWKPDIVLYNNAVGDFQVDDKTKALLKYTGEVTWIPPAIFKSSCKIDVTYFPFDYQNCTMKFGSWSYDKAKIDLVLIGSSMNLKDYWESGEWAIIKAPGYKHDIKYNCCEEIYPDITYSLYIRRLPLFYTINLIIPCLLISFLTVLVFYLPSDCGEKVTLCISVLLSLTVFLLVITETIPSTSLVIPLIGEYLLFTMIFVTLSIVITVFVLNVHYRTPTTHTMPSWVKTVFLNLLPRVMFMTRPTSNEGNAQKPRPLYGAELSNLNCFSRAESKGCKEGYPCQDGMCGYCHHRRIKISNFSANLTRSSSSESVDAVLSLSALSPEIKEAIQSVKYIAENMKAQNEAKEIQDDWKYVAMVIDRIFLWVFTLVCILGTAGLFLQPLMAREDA
Sequence of Neuronal acetylcholine receptor subunit alpha-7 (P36544 whole entry): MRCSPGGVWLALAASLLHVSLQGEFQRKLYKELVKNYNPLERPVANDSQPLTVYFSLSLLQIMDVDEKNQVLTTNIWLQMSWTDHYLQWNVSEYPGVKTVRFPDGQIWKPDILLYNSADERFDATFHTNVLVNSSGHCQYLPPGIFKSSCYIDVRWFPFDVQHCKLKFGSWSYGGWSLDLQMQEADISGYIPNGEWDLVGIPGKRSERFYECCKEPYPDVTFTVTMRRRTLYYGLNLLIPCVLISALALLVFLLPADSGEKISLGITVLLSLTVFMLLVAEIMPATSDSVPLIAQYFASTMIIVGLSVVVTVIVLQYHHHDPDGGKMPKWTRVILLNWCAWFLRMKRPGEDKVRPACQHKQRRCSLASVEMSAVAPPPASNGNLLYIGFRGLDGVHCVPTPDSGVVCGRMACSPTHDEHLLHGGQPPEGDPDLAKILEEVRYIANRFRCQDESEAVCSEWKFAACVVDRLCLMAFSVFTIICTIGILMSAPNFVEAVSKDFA

| SMILES | Ki [1] [nM] | Emax [2] [%] | EC50 [3] [nM] | Ki [4] [nM] | Emax [5] [%] | Ki [6] [nM] | EC50 [7] [nM] | Activity (Rattus norvegicus [8]) | Activity (Rattus norvegicus [9]) |
| --- | --- | --- | --- | --- | --- | --- | --- | --- | --- |
| CC(C)NC(=O)[C@H]1C[C@@H]2CNC[C@@H](C2)C1 | 23 | 25 | 27000 | 6000 | 64 | 11000 | 1900 |  |  |
| O=C(C1CC1)[C@H]1C[C@@H]2CNC[C@@H](C2)C1 | 43 | 10 | 1300 | 4100 | 22 |  | 7100 |  |  |
| O=C(c1ccco1)[C@H]1C[C@@H]2CNC[C@@H](C2)C1 | 110 |  |  |  |  | 15000 |  |  |  |
| CNC(=O)[C@H]1C[C@@H]2CNC[C@@H](C2)C1 | 1.9 | 5 | 100000 |  | 65 |  | 2000 |  |  |
| CCCNC(=O)[C@H]1C[C@@H]2CNC[C@@H](C2)C1 | 6 | 24 | 15000 | 4000 | 54 | 10000 | 2400 |  |  |
| CN1CCC[C@H]1c1cccnc1 |  | 100 |  |  | 100 |  |  |  |  |
| COC(=O)C1CC2CNCC(C2)C1 (mixture of isomers) | 2400 |  |  |  |  |  |  |  |  |
| O=C([C@@H]1C[C@@H]1F)N1CC2CNCC2C1 (mixture of isomers) | 17 | 88 | 13000 | 860 | 120 | 6900 | 930 |  |  |
| O=C([C@H]1C[C@H]1F)N1CC2CNCC2C1 (mixture of isomers) | 5 | 140 | 24000 | 380 | 130 | 1400 | 1000 |  |  |
| O=C([C@H]1C[C@@H]1F)N1CC2CNCC2C1 (mixture of isomers) | 30 | 90 | 14000 | 810 | 140 | 2700 | 900 |  |  |
| O=C([C@@H]1C[C@H]1F)N1CC2CNCC2C1 (mixture of isomers) | 9 | 150 | 8400 | 420 | 130 | 990 | 190 |  |  |
| C[C@H]1C[C@H]1C(=O)N1CC2CNCC2C1 (mixture of isomers) | 18 | 110 | 10000 | 2000 | 100 | 4500 | 19000 |  |  |
| C[C@@H]1C[C@@H]1C(=O)N1CC2CNCC2C1 (mixture of isomers) | 1 | 180 | 1400 | 280 | 140 | 350 | 1200 |  |  |
| C[C@@H]1C[C@H]1C(=O)N1CC2CNCC2C1 (mixture of isomers) | 4 | 110 | 14000 | 360 | 100 | 1900 | 1700 |  |  |
| C[C@H]1C[C@@H]1C(=O)N1CC2CNCC2C1 (mixture of isomers) | 43 | 26 | 34000 | 13000 | 68 | 100000 | 5600 |  |  |
| O=C([C@@H]1C[C@@H]1F)N1CC2CNCC(C2)C1 (mixture of isomers) | 5.2 | 90 | 11000 | 1200 | 11 | 300 | 400 |  |  |
| O=C([C@H]1C[C@H]1F)N1CC2CNCC(C2)C1 (mixture of isomers) | 1.4 | 130 | 2100 | 150 | 7 | 100 | 9200 |  |  |

| SMILES | Ki [1] [nM] | Emax [2] [%] | EC50 [3] [nM] | Ki [4] [nM] | Emax [5] [%] | Ki [6] [nM] | EC50 [7] [nM] | Activity (Rattus norvegicus [8]) | Activity (Rattus norvegicus [9]) |
| --- | --- | --- | --- | --- | --- | --- | --- | --- | --- |
| O=C([C@@H]1C[C@H]1F)N1CC2CNCC(C2)C1 (mixture of isomers) | 1 | 130 | 390 | 36 | 77 | 10 | 430 |  |  |
| O=C([C@H]1C[C@@H]1F)N1CC2CNCC(C2)C1 (mixture of isomers) | 7.3 | 210 | 8000 | 320 | 84 | 400 | 2700 |  |  |
| C[C@@H]1C[C@H]1C(=O)N1CC2CNCC(C2)C1 (mixture of isomers) | 1 | 120 | 1600 | 100 | 23 | 30 | 12000 |  |  |
| C[C@H]1C[C@@H]1C(=O)N1CC2CNCC(C2)C1 (mixture of isomers) | 28 | 89 | 8300 | 600 | 21 | 300 | 10000 |  |  |
| C[C@@H]1C[C@@H]1C(=O)N1CC2CNCC(C2)C1 (mixture of isomers) | 0.2 | 160 | 80 | 10 | 5 | 5 | 1900 |  |  |
| C[C@H]1C[C@H]1C(=O)N1CC2CNCC(C2)C1 (mixture of isomers) | 2.9 | 140 | 300 | 100 | 0.5 | 100 | 100000 |  |  |
| CC(=O)N1CC2CNCC2C1 (mixture of isomers) | 38 | 36 | 23000 | 14000 | 110 |  | 2600 |  |  |
| CCC(=O)N1CC2CNCC2C1 (mixture of isomers) | 12 | 130 | 18000 | 2100 | 120 | 4000 | 1300 | Active | Active |
| CC(=O)N1CC2CNCC(C2)C1 (mixture of isomers) |  | 110 | 13000 | 5500 | 34 | 3300 | 9900 |  |  |
| CCC(=O)N1CC2CNCC(C2)C1 (mixture of isomers) | 8 | 130 | 5900 | 20000 | 83 | 1600 | 1900 |  |  |
| COC(=O)N1CC2CNCC(C2)C1 (mixture of isomers) | 20 |  |  |  | 65 |  | 5200 |  |  |
| COC(=O)N1CC2CNCC2C1 (mixture of isomers) | 23 | 85 | 16000 | 14000 |  |  |  |  |  |
| CNC(=O)[C@H]1C[C@H]2CNC[C@H]2C1 (mixture of isomers) | 180 |  |  |  |  | 27000 |  |  |  |
| O=C(C1CC1)[C@H]1C[C@H]2CNC[C@H]2C1 (mixture of isomers) | 0.5 | 130 | 930 | 70 | 120 | 140 | 18 |  |  |
| O=C(c1ccco1)[C@H]1C[C@H]2CNC[C@H]2C1 (mixture of isomers) | 13 | 40 | 11000 | 2200 | 94 | 3400 | 1600 |  |  |
| COC(=O)[C@H]1C[C@H]2CNC[C@H]2C1 (mixture of isomers) | 8 | 100 | 14000 | 400 | 130 | 13000 | 1200 |  |  |

— ChEMBL document CHEMBL2407030, “Novel nicotinic acetylcholine receptor agonists containing carbonyl moiety as a hydrogen bond acceptor” (Bioorg Med Chem Lett, 2013)
